Patent publication US6268362A, “Amino anthracyclinone derivatives and their use in the treatment of amyloidosis” (Pharmacia & Upjohn SpA, priority 1998, dated 2001)

Molecular target: T1, Aβ1-40 peptide (Homo sapiens, UniProt P05067)
T1 construct: An Aβ1-40 peptide monomer stock solution was prepared by dissolving the peptide in dimethylsulfoxide
Experiment: Inhibition of aggregation of monomeric Aβ1-40 peptide stimulated by a seed of pre-formed sonicated Aβ1-40 amyloid fibrils (HPLC of residual monomer)
Format: biochemical
Conditions: 20 μM Aβ1-40 monomer, 50 μM test compound, 4 μM pre-formed sonicated Aβ1-40 fibrils, 2 h at 37° C., pH 7.4
Method: The compounds disclosed in the present invention interfere with the aggregation of monomeric Aβ1-40 peptide stimulated by a seed of Aβ1-40 amyloid fibrils. The activity of the compounds was assessed according to the procedure reported below.
An Aβ1-40 peptide monomer stock solution was prepared by dissolving the peptide in dimethylsulfoxide at a concentration of 33.33 mg/ml. The stock solution was further diluted 11.5 times with dimethylsulfoxide. This solution was then diluted with 10 mM phosphate buffer pH 7.4 containing 150 mM sodium chloride to prepare the test solution. To an eppendorf tube containing 47 μl of Aβ1-40 peptide monomer solution were added 3 μl of a 830 μM water solution of the test compound containing 66.4 μM, based on the Aβ1-40 monomer content, of pre-formed sonicated Aβ1-40 fibrils: the resulting solution was 20 μM in Aβ1-40 monomer, 50 μM in the test compound and contained 4 μM, based on the Aβ1-40 monomer content, of pre-formed sonicated Aβ1-40 fibrils. The aggregation was allowed to proceed for two hours at 37° C. The suspension was then centrifuged at 15000 rpm for 15 minutes at +4° C., the supernatant was collected and the Aβ1-40 monomer was quantitated by HPLC. The activity is expressed as the percent of inhibition of the aggregation of a 20 μM Aβ1-40 monomer solution stimulated by 4 μM, based on the Aβ1-40 monomer content, pre-formed sonicated Aβ1-40 fibrils.

T1 sequence (P05067 672-711 limits assumed): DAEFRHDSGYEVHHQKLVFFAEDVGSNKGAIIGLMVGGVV

**Q.** For COc1cccc2c1C(=O)c1c(O)c3c(c(O)c1C2=O)CC(O)(C(=O)CN1CC=CCC1)CC3O (stereo not shown) [Compound 1a, 14-(1,2,3,6-tetrahydropyridin-1-yl)daunomycinone], which “% inhibition” value is on record?
**A.** 74.1%

**Q.** How did the “% inhibition” value turn out when COc1cccc2c1C(=O)c1c(O)c3c(c(O)c1C2=O)CC(O)(C(O)CN1CC=CCC1)CC3 [Compound 1d, (13R)-7-deoxy-13-dihvdro-14-(1,2,3,6-tetrahydropyridin-1-yl)daunomycinone] was run?
**A.** 47.3%

**Q.** How did the “% inhibition” value turn out when COc1cccc2c1C(=O)c1c(O)c3c(c(O)c1C2=O)CC(O)(C(=O)CN1CC=CCC1)CC3N1CCOCC1 (stereo not shown) [Compound 1k, 7-deoxy-7-(4-morpholinyl) -14-(1,2,3,6-tetrahydropyridin-1-yl)daunomycinone] was run?
**A.** 52.1%

**Q.** For COc1cccc2c1C(=O)c1c(O)c3c(c(O)c1C2=O)CC(O)(C(=O)CN1CCOCC1)CC3 (stereo not shown) [Compound A17, 7-deoxy-14-(4-morpholinyl)-daunomycinone, reference compound], which “% inhibition” value is on record?
**A.** 11.4%
